# Measurements as given in PMC12562324, “Surfactin Structural Variants Differentially Modulate Plant Immune Responses” (Biomolecules, 2025).
# Assays:
# [1] = test system: Arabidopsis thaliana nia1nia2 double mutant roots; assay: Srf-induced NO in nitrate reductase double mutant roots; type: cell-based; details: fluorescence 40 min after Srf treatment, compared with Col-0; n = 12 from three independent experiments; Figure 3D
# Protocol: For the detection of intracellular NO, roots were processed as described above and 200 µL sterile water was replaced by 200 µL 5 μM DAF-DA in a buffered solution (10 mM Tris/HCl, pH = 7.4). Roots were incubated at room temperature for 1 h in the absence of light and then washed 3 times with Tris/HCl (10 mM, pH = 7.4). The fluorescence emitted by DAF-DA was detected by excitation at 495 nm and emission at 515 nm. Experiments where NO was measured after pretreatment with the calcium channel blocker or calcium chelator included an additional step where LaCl3 (10 mM; Merck Chemicals SA, Hoeilaart, Belgium) or EGTA (1 mM; Merck Chemicals SA, Hoeilaart, Belgium) was added three minutes before treatments. Data were processed as described above for ROS. For NO measurements in protoplasts, the suspension was incubated in the same conditions before being distributed (50 µL) in microplate wells and treated with the CLPs at a 10 µM final concentration or with 0.1% DMSO as a mock.
# [2] = test system: Botrytis cinerea; assay: ISR against B. cinerea in myb72-2 knockout mutant; type: in vivo; details: 10 µM Srf or mock (0.1% EtOH) before B. cinerea infection; n = 30 from two independent experiments; Figure 6C
# Protocol: Plants were grown for 4 weeks in hydroponic conditions in Araponics systems containing a nutrient solution (0.25% (v/v) FLORAMICRO®, 0.25% (v/v) FLORABLOOM®, 0.25% (v/v) FLORAGRO®; General Hydroponics®, in volume ratio 1:1:1, as recommended by the manufacturer), with a photoperiod of 12 h and a temperature of 22 °C. Plants were then transferred into 10 mL vials filled with fresh nutrient solution and treated at the root level with CLPs or ethanol (mock treatment) to obtain final concentrations of 10 µM and 0.1%, respectively. After incubation for 24 h, plants were inoculated with Botrytis cinerea (Helotiales: Sclerotiniaceae) as the conidia solution. Spores were collected from B. cinerea grown on PDA plates for 4 weeks using a solution composed of 1.75 g/L KH2PO4; 0.74 g/L MgSO4; 4 g/L glucose, and 0.02% (v/v) Tween 20. After spore collection, the concentration was adjusted to 5 × 10^5 spores per mL, and spores were incubated at 30 °C for eight hours. Inoculation was conducted by inoculating a drop of 3 µL of conidia solution onto seven leaves per plant and fifteen plants per treatment. The number of spreading lesions was evaluated 96 h post infection.
# [3] = test system: MYB72; assay: Coumarin pathway reporter line pMYB72:GFP-GUS; type: cell-based, Arabidopsis thaliana; details: 10 µM Srf, 20 min post treatment, vs mock; n = 9 from three independent experiments; p < 0.05; Figure 6A
# Protocol: (§1) Seedlings of the Arabidopsis thaliana reporter lines pMYB72:GFP-GUS and pBGLU42:GFP-GUS were germinated and cultivated for seven days under the aforementioned conditions. Uniform plantlets were then transferred to 96-well optical bottom black microplates (Greiner 96 µClear, Thermo Fisher Scientific, Hampton, VA, USA). Each well contained 150 µL of the hydroponic solution. Following transfer, the microplates were sealed and incubated in a growth chamber under controlled conditions (22 °C with a 12 h photoperiod). On the fifth day of this incubation, the plates were treated by adding 150 µL of either the CLP solution or a mock control to each well. Fluorescence measurements were subsequently acquired using a Spark microplate reader and configured with an excitation wavelength of 485 nm and an emission wavelength of 530 nm. Data were collected with nine measurement points acquired per well to ensure robustness.
# [4] = test system: BGLU42; assay: Coumarin pathway reporter line pBGLU42:GFP-GUS; type: cell-based, Arabidopsis thaliana; details: 10 µM Srf, 20 min post treatment, vs mock; n = 12 from three independent experiments; p < 0.05; Figure 6B
# Protocol: as §1
# [5] = test system: root tissues; details: previous results; cited from earlier work
# From the text: Early immune responses associated with PTI include the rapid accumulation of extracellular ROS in the apoplast, generated mainly by the plasma membrane-located NADPH oxidase RBOHD or by cell wall peroxidases. Cytoplasmic hydrogen peroxide ([ROS]intra) production also emerges as an early defense response and could originate from various organelles, as reported for ETI, or in response to abiotic stresses or other small microbial compounds [9, 36, 37].
substance,measurement,setting,value
surfactin [Srf],NO production in nia1nia2 double mutant roots,[1],fully conserved induction of NO production
same,ISR elicitor potential in myb72-2 knockout mutant compared to wild-type Col-0,[2],fully conserved
same,MYB72 expression in roots of reporter line (GFP fluorescence),[3],significant upregulation
same,BGLU42 expression in roots of reporter line (GFP fluorescence),[4],significant upregulation
same,Burst in extracellular ROS in root tissues,[5],not a burst in extracellular ROS
same,[ROS]intra production in root tissues,[5],triggers [ROS]intra production
